The test system of experiment [1] is HCT-116. Kind of experiment: Antiproliferative activity against human HCT116 cells assessed as reduction in cell viability after 72 hrs by MTT assay. It counts as functional, cell-based. As to conditions: HCT-116, 72 h. (Tetrazolium assays rely on reduction of a dye to a coloured formazan, in cell work by metabolically active cells.)
The test system of another experiment is MCF7. Kind of experiment: Antiproliferative activity against human MCF7 cells assessed as reduction in cell viability after 72 hrs by MTT assay. It counts as functional, cell-based. As to conditions: MCF7, 72 h.
The subject of the next experiment is A549. Kind of experiment: Antiproliferative activity against human A549 cells assessed as reduction in cell viability after 72 hrs by MTT assay. It counts as functional, cell-based. As to conditions: A549, 72 h.
The target in a further experiment is T1, Aurora kinase C (Homo sapiens, UniProt Q9UQB9).
T1 sequence (Q9UQB9 whole entry): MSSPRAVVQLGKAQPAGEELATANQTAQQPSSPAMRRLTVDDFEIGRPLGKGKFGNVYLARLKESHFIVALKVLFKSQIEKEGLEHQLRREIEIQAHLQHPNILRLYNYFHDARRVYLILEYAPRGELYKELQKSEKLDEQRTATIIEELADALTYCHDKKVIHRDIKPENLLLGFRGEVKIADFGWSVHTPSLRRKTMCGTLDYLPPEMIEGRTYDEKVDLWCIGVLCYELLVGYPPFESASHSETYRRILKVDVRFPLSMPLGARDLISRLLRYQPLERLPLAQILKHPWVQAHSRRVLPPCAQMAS

Experiment [2] has as its target T2, Aurora kinase A (Homo sapiens) (UniProt O14965).
T2 sequence (whole entry): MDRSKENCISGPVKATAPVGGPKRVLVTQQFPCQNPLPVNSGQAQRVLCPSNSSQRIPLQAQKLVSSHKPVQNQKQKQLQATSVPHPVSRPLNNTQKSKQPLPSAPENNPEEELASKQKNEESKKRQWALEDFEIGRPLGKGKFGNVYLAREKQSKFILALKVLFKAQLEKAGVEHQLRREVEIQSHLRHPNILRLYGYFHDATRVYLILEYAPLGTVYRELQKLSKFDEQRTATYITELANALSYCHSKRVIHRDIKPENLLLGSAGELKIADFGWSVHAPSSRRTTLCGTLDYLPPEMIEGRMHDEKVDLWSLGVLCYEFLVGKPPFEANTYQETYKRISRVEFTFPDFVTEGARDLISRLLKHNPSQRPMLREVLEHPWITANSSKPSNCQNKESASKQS
Kind of experiment: Inhibition of Aurora A in human HCT116 cells assessed as reduction in phosphorylation at Thr288 residue at 0.5 to 5 uM after 12 hrs by Western blot analysis. It counts as cell-based. The conditions noted are these: HCT-116. On the technique in general: In western blotting, separated proteins are transferred to a membrane and probed.

Experiment [3] concerns HCT-116. Kind of experiment: Induction of apoptosis in human HCT116 cells assessed as necrotic cells at 0.5 uM after 48 hrs by Annexin-V/PI-staining based flow cytometry (reference value: […]). It counts as functional. Background: Flow cytometry measures light scatter and fluorescence of single cells or particles in a stream.
The subject of experiment [4] is HCT-116. Kind of experiment: Induction of apoptosis in human HCT116 cells assessed as necrotic cells at 1 uM after 48 hrs by Annexin-V/PI-staining based flow cytometry (reference value: […]). Format: functional.
Experiment [5] has as its system HCT-116. Kind of experiment: Induction of apoptosis in human HCT116 cells assessed as late apoptotic cells at 0.1 uM after 48 hrs by Annexin-V/PI-staining based flow cytometry (reference value: 3.34%). Format: functional.
The subject of experiment [6] is HCT-116. Kind of experiment: Induction of apoptosis in human HCT116 cells assessed as necrotic cells after 48 hrs by Annexin-V/PI-staining based flow cytometry. It counts as functional, cell-based.
Experiment [7] has as its system HCT-116. Kind of experiment: Induction of apoptosis in human HCT116 cells assessed as viable cells at 0.1 uM after 48 hrs by Annexin-V/PI-staining based flow cytometry (reference value: 89.72%). Format: functional. As to conditions: HCT-116, 48 h, read-out: Activity.
The test system of experiment [8] is HCT-116. Kind of experiment: Induction of apoptosis in human HCT116 cells assessed as viable cells at 1 uM after 48 hrs by Annexin-V/PI-staining based flow cytometry (reference value: 89.72%). Format: functional. The conditions noted are these: HCT-116, 48 h, read-out: Activity.
The test system of experiment [9] is HCT-116. Kind of experiment: Induction of apoptosis in human HCT116 cells assessed as early apoptotic cells at 1 uM after 48 hrs by Annexin-V/PI-staining based flow cytometry (reference value: 0.54%). It counts as functional.
Another experiment has as its target T3, Aurora kinase A (Homo sapiens, UniProt O14965).
T3 sequence (O14965 whole entry): T2 sequence (whole entry)
Kind of experiment: Inhibition of Aurora A (unknown origin) after 1 hr in presence of ATP by Kinase-Glo reagent-based luminescence assay.

Experiment [10] has as its system HCT-116. Kind of experiment: Induction of apoptosis in human HCT116 cells assessed as necrotic cells at 0.1 uM after 48 hrs by Annexin-V/PI-staining based flow cytometry (reference value: […]). It counts as functional.
Experiment [11] deals with Phosphatidylinositol 4,5-bisphosphate 3-kinase catalytic subunit alpha isoform (Homo sapiens) (UniProt P42336). Kind of experiment: Inhibition of PI3Kalpha (unknown origin) at 1 uM after 1 hr in presence of ATP by Kinase-Glo reagent-based luminescence assay relative to control.
Sequence of Phosphatidylinositol 4,5-bisphosphate 3-kinase catalytic subunit alpha isoform (Homo sapiens) (P42336 whole entry, canonical isoform): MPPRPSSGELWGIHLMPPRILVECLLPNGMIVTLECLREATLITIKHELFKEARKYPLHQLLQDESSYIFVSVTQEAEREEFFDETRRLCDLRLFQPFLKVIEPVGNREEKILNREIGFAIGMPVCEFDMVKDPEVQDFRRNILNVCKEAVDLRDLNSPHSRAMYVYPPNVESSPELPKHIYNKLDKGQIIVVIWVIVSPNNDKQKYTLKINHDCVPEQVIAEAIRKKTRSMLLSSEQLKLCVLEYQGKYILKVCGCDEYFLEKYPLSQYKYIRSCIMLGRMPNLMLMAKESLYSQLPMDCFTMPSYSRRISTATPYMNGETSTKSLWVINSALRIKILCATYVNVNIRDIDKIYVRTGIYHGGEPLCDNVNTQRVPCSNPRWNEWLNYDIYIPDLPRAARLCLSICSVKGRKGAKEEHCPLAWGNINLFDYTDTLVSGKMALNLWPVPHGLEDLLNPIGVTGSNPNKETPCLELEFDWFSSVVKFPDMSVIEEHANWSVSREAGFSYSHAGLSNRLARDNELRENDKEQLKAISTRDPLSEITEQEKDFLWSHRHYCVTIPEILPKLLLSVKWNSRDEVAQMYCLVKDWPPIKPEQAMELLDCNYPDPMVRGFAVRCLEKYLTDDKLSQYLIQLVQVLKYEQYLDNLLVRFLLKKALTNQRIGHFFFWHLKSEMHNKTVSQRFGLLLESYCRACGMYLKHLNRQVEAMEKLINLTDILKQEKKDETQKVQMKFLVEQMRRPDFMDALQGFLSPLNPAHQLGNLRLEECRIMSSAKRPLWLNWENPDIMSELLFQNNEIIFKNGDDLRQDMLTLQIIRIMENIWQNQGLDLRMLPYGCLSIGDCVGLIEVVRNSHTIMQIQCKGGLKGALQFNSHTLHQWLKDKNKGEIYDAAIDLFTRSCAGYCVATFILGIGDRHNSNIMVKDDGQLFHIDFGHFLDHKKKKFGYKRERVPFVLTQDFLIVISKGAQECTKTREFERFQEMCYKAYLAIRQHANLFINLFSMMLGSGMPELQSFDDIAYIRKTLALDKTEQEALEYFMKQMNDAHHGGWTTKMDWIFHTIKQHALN
In experiment [12] the test system is HCT-116. Kind of experiment: Induction of apoptosis in human HCT116 cells assessed as early apoptotic cells at 0.1 uM after 48 hrs by Annexin-V/PI-staining based flow cytometry (reference value: 0.54%). It counts as functional.
Experiment [13] deals with HCT-116. Kind of experiment: Induction of apoptosis in human HCT116 cells assessed as viable cells at 0.5 uM after 48 hrs by Annexin-V/PI-staining based flow cytometry (reference value: 89.72%). Format: functional. As to conditions: HCT-116, 48 h, read-out: Activity.
Experiment [14] addresses T4, Aurora kinase B (Homo sapiens, UniProt Q96GD4). Kind of experiment: Inhibition of Aurora B in human HCT116 cells assessed as reduction in phosphorylation at Thr232 residue at 0.5 to 5 uM after 12 hrs by Western blot analysis. Format: cell-based. The conditions noted are these: HCT-116.
Experiment [15] addresses T4, Aurora kinase B. Kind of experiment: Inhibition of Aurora B (unknown origin) after 1 hr in presence of ATP by Kinase-Glo reagent-based luminescence assay.
Experiment [16] deals with HCT-116. Kind of experiment: Induction of apoptosis in human HCT116 cells assessed as late apoptotic cells at 0.5 uM after 48 hrs by Annexin-V/PI-staining based flow cytometry (reference value: 3.34%). Format: functional.
The subject of experiment [17] is HCT-116. Kind of experiment: Induction of apoptosis in human HCT116 cells assessed as early apoptotic cells at 0.5 uM after 48 hrs by Annexin-V/PI-staining based flow cytometry (reference value: 0.54%). It counts as functional.
The subject of experiment [18] is HCT-116. Kind of experiment: Induction of apoptosis in human HCT116 cells assessed as late apoptotic cells at 1 uM after 48 hrs by Annexin-V/PI-staining based flow cytometry (reference value: 3.34%). It counts as functional.
The subject of experiment [19] is HCT-116. Kind of experiment: Induction of apoptosis in human HCT116 cells assessed as decrease in bcl-xl protein expression at 0.5 to 5 uM after 12 hrs by Western blot analysis. Format: functional, cell-based.
The target of experiment [20] is Fibroblast growth factor receptor 1 (Homo sapiens) (UniProt P11362). Kind of experiment: Inhibition of FGFR1 (unknown origin) at 1 uM after 1 hr in presence of ATP by Kinase-Glo reagent-based luminescence assay relative to control.
Sequence of Fibroblast growth factor receptor 1 (Homo sapiens) (P11362 22-822 limits assumed): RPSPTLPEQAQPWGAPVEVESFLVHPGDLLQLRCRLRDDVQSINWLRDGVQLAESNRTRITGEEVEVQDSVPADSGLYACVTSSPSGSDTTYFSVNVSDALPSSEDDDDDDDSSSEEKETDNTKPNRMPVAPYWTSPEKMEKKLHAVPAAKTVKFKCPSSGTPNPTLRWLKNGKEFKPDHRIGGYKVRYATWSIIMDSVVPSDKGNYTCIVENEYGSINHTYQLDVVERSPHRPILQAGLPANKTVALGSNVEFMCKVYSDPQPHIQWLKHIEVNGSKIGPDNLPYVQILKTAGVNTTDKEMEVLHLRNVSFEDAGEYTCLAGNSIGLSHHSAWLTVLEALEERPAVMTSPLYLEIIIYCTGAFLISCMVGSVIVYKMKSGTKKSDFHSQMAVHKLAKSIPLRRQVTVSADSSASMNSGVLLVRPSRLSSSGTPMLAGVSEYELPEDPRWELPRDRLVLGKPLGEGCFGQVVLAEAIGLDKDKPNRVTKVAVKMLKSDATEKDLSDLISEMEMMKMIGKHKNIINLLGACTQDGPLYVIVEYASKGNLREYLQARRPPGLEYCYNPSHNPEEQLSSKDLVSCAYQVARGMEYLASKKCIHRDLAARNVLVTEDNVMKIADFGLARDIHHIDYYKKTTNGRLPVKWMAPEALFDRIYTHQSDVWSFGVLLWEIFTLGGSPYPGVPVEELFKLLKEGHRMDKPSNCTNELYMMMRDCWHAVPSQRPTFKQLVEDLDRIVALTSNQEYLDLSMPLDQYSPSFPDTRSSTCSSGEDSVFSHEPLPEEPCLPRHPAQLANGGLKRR
Experiment [21] concerns the target Vascular endothelial growth factor receptor 2 (Homo sapiens) (UniProt P35968). Kind of experiment: Inhibition of VEGFR2 (unknown origin) at 1 uM after 1 hr in presence of ATP by Kinase-Glo reagent-based luminescence assay relative to control.
Experiment [22] deals with HCT-116. Kind of experiment: Induction of apoptosis in human HCT116 cells assessed as increase in bax protein expression at 0.5 to 5 uM after 12 hrs by Western blot analysis. It counts as functional, cell-based.

The source made the active and inactive calls. The calls are words filed in the database; no cut-off is given here.

T4 sequence (Q96GD4 whole entry): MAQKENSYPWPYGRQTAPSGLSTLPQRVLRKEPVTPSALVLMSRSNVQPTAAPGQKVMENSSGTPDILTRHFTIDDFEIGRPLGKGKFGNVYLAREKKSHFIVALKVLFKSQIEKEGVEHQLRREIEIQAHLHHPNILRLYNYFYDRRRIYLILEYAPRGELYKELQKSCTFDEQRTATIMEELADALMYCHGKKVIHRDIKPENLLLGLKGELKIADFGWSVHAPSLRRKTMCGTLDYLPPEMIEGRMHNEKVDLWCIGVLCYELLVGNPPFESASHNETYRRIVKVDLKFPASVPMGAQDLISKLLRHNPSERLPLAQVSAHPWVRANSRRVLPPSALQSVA
Sequence of Vascular endothelial growth factor receptor 2 (Homo sapiens) (P35968 whole entry): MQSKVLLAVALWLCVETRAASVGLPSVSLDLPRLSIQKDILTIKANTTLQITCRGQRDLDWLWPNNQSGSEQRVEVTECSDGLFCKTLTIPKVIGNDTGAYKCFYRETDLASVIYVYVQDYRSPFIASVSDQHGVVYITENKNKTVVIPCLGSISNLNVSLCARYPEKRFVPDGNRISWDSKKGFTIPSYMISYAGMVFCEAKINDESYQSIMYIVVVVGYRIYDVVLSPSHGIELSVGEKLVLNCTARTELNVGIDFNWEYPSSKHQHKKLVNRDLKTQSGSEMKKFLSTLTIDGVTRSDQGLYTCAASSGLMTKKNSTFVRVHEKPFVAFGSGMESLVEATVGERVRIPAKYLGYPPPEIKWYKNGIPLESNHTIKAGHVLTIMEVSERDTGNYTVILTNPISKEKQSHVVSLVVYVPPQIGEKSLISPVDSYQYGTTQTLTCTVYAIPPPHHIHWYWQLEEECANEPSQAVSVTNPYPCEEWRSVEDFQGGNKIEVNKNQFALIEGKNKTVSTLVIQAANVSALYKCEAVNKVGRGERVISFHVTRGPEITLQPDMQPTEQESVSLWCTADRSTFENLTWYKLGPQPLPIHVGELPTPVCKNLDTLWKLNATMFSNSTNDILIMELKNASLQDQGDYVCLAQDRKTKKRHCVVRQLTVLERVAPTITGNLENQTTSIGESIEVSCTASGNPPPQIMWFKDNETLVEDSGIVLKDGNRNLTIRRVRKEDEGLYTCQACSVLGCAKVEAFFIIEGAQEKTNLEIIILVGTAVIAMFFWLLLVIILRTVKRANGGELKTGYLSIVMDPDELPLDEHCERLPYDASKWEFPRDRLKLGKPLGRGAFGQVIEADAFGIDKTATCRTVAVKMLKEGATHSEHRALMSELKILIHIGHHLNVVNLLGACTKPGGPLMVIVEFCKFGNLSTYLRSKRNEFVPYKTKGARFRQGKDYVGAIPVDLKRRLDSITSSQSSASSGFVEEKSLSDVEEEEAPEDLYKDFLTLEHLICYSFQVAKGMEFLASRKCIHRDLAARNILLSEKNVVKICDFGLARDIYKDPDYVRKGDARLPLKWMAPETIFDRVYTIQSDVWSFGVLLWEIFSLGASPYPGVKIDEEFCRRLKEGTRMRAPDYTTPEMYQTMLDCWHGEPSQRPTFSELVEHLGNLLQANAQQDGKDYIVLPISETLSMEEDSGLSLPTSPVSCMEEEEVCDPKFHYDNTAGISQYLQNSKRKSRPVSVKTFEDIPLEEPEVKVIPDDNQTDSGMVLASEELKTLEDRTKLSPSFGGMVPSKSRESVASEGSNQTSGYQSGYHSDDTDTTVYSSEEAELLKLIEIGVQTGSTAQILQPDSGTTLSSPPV
Description for Aurora kinase C: Inhibition of recombinant full-length His-tagged human Aurora C expressed in baculovirus expression system

As a reminder, the IC50 is the concentration that gives 50% inhibition. Take `O=C(Nc1ccc(Nc2nccc(Nc3cccc(Cl)c3)n2)cc1)Nc1ccc(Cl)c(C(F)(F)F)c1`: the IC50 with HCT-116 [1] came to 4.82 µM; in the experiment on MCF7, 10.4 µM; with A549 it was 8.05 µM.
For `O=C(Nc1ccc(Nc2nccc(Nc3ccc(Cl)cc3)n2)cc1)Nc1ccc(Cl)c(C(F)(F)F)c1`, in that order: 4.66 µM, 12.8 µM and 6.32 µM.
For `O=C(Nc1ccc(Nc2nccc(Nc3ccccc3)n2)cc1)Nc1ccc(Cl)c(C(F)(F)F)c1`, in that order: > 50 µM, > 50 µM and > 50 µM.
In the same order, the values of `O=C(Nc1ccc(Nc2nccc(Nc3ccccc3Cl)n2)cc1)Nc1ccc(Cl)c(C(F)(F)F)c1` are 8.1 µM, 27.9 µM and 18.6 µM.
As to `CCCNc1ccnc(Nc2ccc(NC(=O)Nc3ccc(Cl)c(C(F)(F)F)c3)cc2)n1`, the IC50 in the experiment on HCT-116 [1] is 4.24 µM; with MCF7, 4.61 µM; with A549 it was 7.32 µM.
For `O=C(Nc1ccc(Nc2nccc(NC3CCCC3)n2)cc1)Nc1cccc(C(F)(F)F)c1`, in that order: 2.41 µM, 5.18 µM and 4.9 µM.
In the same order, the values of `O=C(Nc1ccc(Cl)cc1)Nc1ccc(Nc2nccc(NC3CCCC3)n2)cc1` are 5.31 µM, 22 µM and 11.8 µM.
For the compound `c1nc2nc(Nc3ccc(N4CCOCC4)cc3)nc(NC3CCCCC3)c2[nH]1` [REVERSINE], half-maximal inhibition against Aurora kinase C (IC50) was put at 0.4 µM.
Turning to `Cn1cc(Nc2ccnc(Nc3ccc(NC(=O)Nc4ccc(Cl)c(C(F)(F)F)c4)cc3)n2)cn1`, the IC50 turned out to be 4.85 µM with HCT-116 [1], 9.77 µM in the experiment on MCF7 and 8.61 µM with A549.
`O=C(Nc1ccc(Nc2nccc(NC3CC3)n2)cc1)Nc1ccc(Cl)c(C(F)(F)F)c1`: the results for the 50% inhibitory concentration (IC50) in the experiment on HCT-116 [1], in the experiment on MCF7 and in the experiment with A549 were 16.4 µM, 38.2 µM and 18.5 µM, respectively.
In the case of `Cc1cc(Nc2cc(N3CCN(C)CC3)nc(Sc3ccc(NC(=O)C4CC4)cc3)n2)n[nH]1` [TOZASERTIB], the results for the IC50 in the experiment with HCT-116 [1], in the experiment with MCF7 and in the experiment on A549 were 1.49 µM, 17.4 µM and 3.9 µM, respectively.
In the same order, the values of `O=C(Nc1ccc(Nc2nccc(NC3CCCC3)n2)cc1)Nc1ccc(Cl)c(C(F)(F)F)c1` are 2.51 µM, 2.33 µM and 5.88 µM.
In general, inhibition refers to the relative decrease from the control value, in per cent. In the case of `O=C(Cc1ccc(Nc2nccc(NC3CCCC3)n2)cc1)NC1CCCCC1`, the inhibition result (in experiment [2]; at Aurora kinase B [14]) was “Active” in each case. For the same compound, the Activity is 15.45% in the experiment on HCT-116 [3]; 46.07% with HCT-116 [4]; 5.89% in the experiment with HCT-116 [5]; “Dose-dependent effect” in the experiment on HCT-116 [6]; 0.84% in the experiment on HCT-116 [9]; 4.39% in the experiment on HCT-116 [10]. In addition, the Activity in the experiment with HCT-116 [12] was 1.9%; in the experiment on HCT-116 [16], 22.54%; in the experiment on HCT-116 [17], 3.99%; in the experiment with HCT-116 [18], 45.64%. Besides, the viability at 0.1 µM in the experiment on HCT-116 [7] is 87.8%. Besides, the viability at 1 µM with HCT-116 [8] is 7.46%. The IC50 at Aurora kinase A was found to be 0.309 µM; in the experiment with HCT-116 [1], 1.31 µM; in the experiment with MCF7 it was 20.5 µM; on Aurora kinase B [15], 0.293 µM; in the experiment on A549, 12.1 µM. In addition, the values for the inhibition in [11], in [20] and in [21] were 2.4%, < 1% and < 1%, respectively. The viability at 0.5 µM with HCT-116 [13] came to 58%. Moreover, the result with HCT-116 [19] and in the experiment on HCT-116 [22] was Active.
For the compound `O=C(Nc1ccc(Nc2nccc(NC3CCCC3)n2)cc1)NC1CCCCC1`, the figures for the inhibition in experiment [11], in experiment [20] and in experiment [21] were 16.8%, < 1% and 4.5%, respectively. In addition, the 50% inhibitory concentration (IC50) with HCT-116 [1] came out at 1.09 µM; in the experiment with MCF7, 19.2 µM; on Aurora kinase B [15] it was 0.329 µM; in the experiment on A549 it was 5.32 µM.
Take `O=C(Cc1ccc(Nc2nccc(NC3CCCC3)n2)cc1)Nc1cccc(C(F)(F)F)c1`: the concentration for half-maximal inhibition (IC50) in the experiment with HCT-116 [1] worked out at 2.5 µM; in the experiment with MCF7, 16.4 µM; with A549, 3.4 µM.
For `O=C(Cc1cccc(C(F)(F)F)c1)Nc1ccc(Nc2nccc(NC3CCCC3)n2)cc1`, in that order: 5.44 µM, 5.7 µM and 8.27 µM.
In the same order, the values of `O=C(CC1CCCCC1)Nc1ccc(Nc2nccc(NC3CCCC3)n2)cc1` are 2.44 µM, 17.6 µM and 3.94 µM.
For `O=C(Nc1ccc(Nc2nccc(NC3CCCCC3)n2)cc1)Nc1ccc(Cl)c(C(F)(F)F)c1`, in that order: 5.95 µM, 10.8 µM and 7.43 µM.

The values are drawn from ChEMBL document CHEMBL4610014, “Discovery of novel 2,4-disubstituted pyrimidines as Aurora kinase inhibitors” (Bioorg Med Chem Lett, 2020).
